Data on 19 compounds can be found in paper PMC11206290, “Study of the Lipophilicity and ADMET Parameters of New Anticancer Diquinothiazines with Pharmacophore Substituents” (Pharmaceuticals, 2024).

Each structure is given as a SMILES string.

The nature of series [1]: RP-TLC lipophilicity (RP-18 plates, acetone–TRIS buffer pH 7.4). The conditions noted are these: for RM0: RP-18, acetone–TRIS buffer pH 7.4, extrapolated to zero acetone concentration; for -b / b: slope of RM = RM0 + bC; for -b: standards I–V; for C0: C0 = −RM0/b; for b: compounds 1–15.
Description: (§1) RP-18 plates were used as the stationary phase, while organic modifiers containing acetone were used as the mobile phase. The linear relationship between RM0 and acetone concentration was determined on the basis of Equation (2) (Table 2). In addition to this, thanks to the relationship observed between RM0 and the slope of these linear plots (b), the lipophilicity parameter C0 was also determined (Table 2).
(§2) All chromatographic experiments were performed on a silica gel 60 RP-18 F254S (10 cm × 10 cm) RP-TLC plate (Merck, Darmstadt, Germany). The mobile phase was prepared by mixing the respective amount of aqueous TRIS (tris(hydroxymethyl)aminomethane) buffer, pH = 7.4 (ionic strength 0.2 M), to meet physiological conditions and acetone in a range from 50 to 80% (v/v) in increments of 5%. […] Before plate development, the chromatographic chambers were saturated with the mobile phase for 0.5 h. […] Each chromatographic experiment was run in triplicate, and then mean values of the retardation factor, i.e., RF values, were used to determine the RMW values of the compounds.
(§3) Next, the chromatographic data in the form of RM0 and coefficient b were used to calculate the lipophilicity parameter C0 [56] from the following Equation (3):(3) C0=−RM0/b
Another series has as its system BCL-2 expression. Details: method as in PMID 30981160. Particulars: RT-QPCR, A549 and SNB-19 ref 24; cited from earlier work.
Another series concerns BAX expression. Details: method as in PMID 30981160. Particulars: RT-QPCR, cancer cell lines ref 24; cited from earlier work.
The subject of series [2] is glioblastoma SNB-19 cell line. Also on record: method as in PMID 30981160. The conditions noted are these: SNB-19 cell line ref 24; cited from earlier work.
The subject of series [3] is lung cancer A549 cell line. Details: method as in PMID 30981160. Particulars: A549 cell line ref 24; cited from earlier work.
Series [4] deals with human lung carcinoma A549. Also on record: method as in PMID 36014495. The conditions noted are these: A549 ref 25; cited from earlier work.
Another series relates to NHDF cells. Details: method as in PMID 36014495. The conditions noted are these: NHDF cells at IC50 doses against A549 or H1299 cells ref 25; cited from earlier work.
A further series has as its system BEAS-2B cells. Details: method as in PMID 36014495. The conditions noted are these: BEAS-2B cells at IC50 doses against A549 or H1299 cells ref 25; cited from earlier work.
Series [5] relates to non-small lung carcinoma H1299. Details: method as in PMID 36014495. Particulars: H1299 ref 25; cited from earlier work.

Description for physchem: as §1, §2, §3

On to `O=C(O)c1ccccc1` [Standard II, benzoic acid, reference compound], for which, in [1], the RM0 was 1.16 and the “-b” value was determined as 0.0247.

On to `c1ccc2nc3c(cc2c1)Sc1c(ccc2ncccc12)N3CCN1CCCC1` [Compound 8, 7-(1'-Pyrolidinylethyl)diquino[3,2-b;6 ',5'-e]thiazine], for which, in the series on BCL-2 expression, the “Expression of BCL-2” value is reported as “markedly reduced”. For the same compound, the “Expression of BAX” value in the series on BAX expression was “markedly reduced”. For the same compound, in series [1], the C0 was found to be 0.7565, the RM0 is 3.48 and the b is −4.60. In series [2], the IC50 was 300 nM.

On to `c1ccc2cc3ccccc3cc2c1` [Standard IV, anthracene, reference compound], for which, in [1], the RM0 is on record as 3.33 and the “-b” value was 0.0412.

`CCN(CC)CCN1c2cnc3ccccc3c2Sc2cc3ccccc3nc21` [Compound 1, 7-(2'-Diethylaminoethyl)diquino[3,2-b;3 ',4'-e]thiazine] registered a chromatographic logP in the series “physchem” of 4.64. Besides, in series [1], the C0 is recorded as 0.7233, the RM0 was 3.45 and the b is −4.77.

`c1ccc2nc3c(cc2c1)Sc1c(cnc2ccccc12)N3CCN1CCCC1` [Compound 3, 7-(1'-Pyrolidinylethyl)diquino[3,2-b;3 ',4'-e]thiazine]: in [1], the C0 stood at 0.7210, the RM0 was 3.05 and the b was −4.23.

As for `CC(=O)Nc1ccccc1` [Standard I, acetanilide, reference compound], the RM0 in series [1] was 0.78.

Regarding `c1ccc2nc3c(cc2c1)Sc1ccc2cccnc2c1N3CCN1CCCCC1` [Compound 14, 14-(1'-Piperidinylethyl)diquino[3,2-b;8 ',7'-e]thiazine], in “physchem”, the chromatographic logP was found to be 4.85. Further, in [1], the C0 stood at 0.7697, the RM0 is on record as 3.61 and the b was −4.69.

`CN1CCCCC1CCN1c2nc3ccccc3cc2Sc2ccc3cccnc3c21` (stereo not drawn) [Compound 15, 14-(1'-M ethyl-2 '-piperydinylethyl)diquino[3,2-b;8 ',7'-e]thiazine]: the chromatographic logP in the series “physchem” turned out to be 5.12. In addition, in series [1], the C0 came out at 0.7625, the RM0 was 3.82 and the b is −5.01.

In turn, `CCN(CC)CCN1c2nc3ccccc3cc2Sc2ccc3cccnc3c21` [Compound 11, 14-(2'-Diethylaminoethyl)diquino[3,2-b;8 ',7'-e]thiazine] had a chromatographic logP in the series “physchem” of 4.84. In addition, in series [1], the C0 is 0.7579, the RM0 is 3.60 and the b is recorded as −4.75.

Compound `c1ccc2nc3c(cc2c1)Sc1c(ccc2ncccc12)N3CCN1CCCCC1` [Compound 9, 7-(1'-Piperidinylethyl)diquino[3,2-b;6 ',5'-e]thiazine] had a chromatographic logP in the series “physchem” of 4.95. In addition, in series [1], the C0 stood at 0.7562, the RM0 was 3.69 and the b was −4.88.

In turn, `CN(C)CCCN1c2nc3ccccc3cc2Sc2ccc3cccnc3c21` [Compound 12, 14-(3'-Dimethylaminopropyl)diquino[3,2-b;8 ',7'-e]thiazine] yielded a chromatographic logP in “physchem” of 4.28. For the same compound, in series [1], the C0 is 0.7458, the RM0 is on record as 3.17 and the b is −4.25.

With `c1ccc2nc3c(cc2c1)Sc1ccc2cccnc2c1N3CCN1CCCC1` [Compound 13, 14-(1'-Pyrolidinylethyl)diquino[3,2-b;8 ',7'-e]thiazine], in the series “physchem”, the chromatographic logP stood at 4.36. Further, in series [1], the C0 amounted to 0.7672, the RM0 is on record as 3.23 and the b is −4.21.

On to `Clc1ccc(C(c2ccc(Cl)cc2)C(Cl)(Cl)Cl)cc1` [Standard V, p,p′-DDT, reference compound], for which the RM0 in series [1] is recorded as 4.69.

Regarding `CCN(CC)CCN1c2ccc3ncccc3c2Sc2cc3ccccc3nc21` [Compound 6, 7-(2'-Diethylaminoethyl)diquino[3,2-b;6 ',5'-e]thiazine], the chromatographic logP in the series “physchem” worked out at 4.94. Besides, in [1], the C0 worked out at 0.7588, the RM0 is given as 3.68 and the b is reported as −4.85.

Consider `CN1CCCCC1CCN1c2ccc3ncccc3c2Sc2cc3ccccc3nc21` (stereo not drawn) [Compound 10, 7-(1'-M ethyl-2 '-piperydinylethyl)diquino[3,2-b;6 ',5'-e]thiazine], for which the chromatographic logP in the series “physchem” was 5.13. Besides, in series [1], the C0 worked out at 0.7599, the RM0 is 3.83 and the b is given as −5.04.

On to `c1ccc2nc3c(cc2c1)Sc1c(cnc2ccccc12)N3CCN1CCCCC1` [Compound 4, 7-(1'-Piperidinylethyl)diquino[3,2-b;3 ',4'-e]thiazine], for which, in “physchem”, the chromatographic logP amounted to 4.68. Besides, in series [1], the C0 came out at 0.7117, the RM0 is on record as 3.48 and the b is on record as −4.89.

As for `CN(C)CCCN1c2ccc3ncccc3c2Sc2cc3ccccc3nc21` [Compound 7, 7-(3'-Dimethylaminopropyl)diquino[3,2-b;6 ',5'-e]thiazine], the chromatographic logP in “physchem” was 4.46. For the same compound, in series [1], the C0 is 0.7627, the RM0 was 3.31 and the b is recorded as −4.34.

`CN(C)CCCN1c2cnc3ccccc3c2Sc2cc3ccccc3nc21` [Compound 2, 7-(3'-Dimethylaminopropyl)diquino[3,2-b;3 ',4'-e]thiazine] showed a chromatographic logP in “physchem” of 4.08. The IC50 in series [3] was 300 nM. In addition, in series [4], the “In vitro anticancer activity” value is recorded as “significant in vitro anticancer activity”. The Lethal effect entry in the series on NHDF cells is given as “weak lethal effect”. Besides, the Lethal effect entry in the series with BEAS-2B cells is “weak lethal effect”. Moreover, in series [5], the “In vitro anticancer activity” value is reported as “significant in vitro anticancer activity”. For the same compound, in series [1], the C0 is 0.7359, the RM0 is recorded as 3.01 and the b is listed as −4.09.

`CN1CCCCC1CCN1c2cnc3ccccc3c2Sc2cc3ccccc3nc21` (stereo not drawn) [Compound 5, 7-(1'-M ethyl-2 '-piperydinylethyl)diquino[3,2-b;3 ',4'-e]thiazine] returned a chromatographic logP in the series “physchem” of 4.89. Further, in series [1], the C0 was found to be 0.7082, the RM0 is 3.64 and the b was −5.14.

By IC50 is commonly meant the midpoint of a concentration-inhibition curve. The chromatographic logP is lipophilicity estimated from chromatographic retention. The low end stands for a more hydrophilic compound, the high end for a more lipophilic compound.
